Substitutions are numbered along the chain they refer to. Where “and” joins values, the source holds several entries; their conditions need not be identical. Identical values can stand only once. Like-named read-outs stand apart in the source and are kept apart here.
Tests used:
M2 mAChR [1] = target: T1, M2 mAChR (Homo sapiens, UniProt P08172); experiment: cell-based
T1 sequence (P08172 1-466): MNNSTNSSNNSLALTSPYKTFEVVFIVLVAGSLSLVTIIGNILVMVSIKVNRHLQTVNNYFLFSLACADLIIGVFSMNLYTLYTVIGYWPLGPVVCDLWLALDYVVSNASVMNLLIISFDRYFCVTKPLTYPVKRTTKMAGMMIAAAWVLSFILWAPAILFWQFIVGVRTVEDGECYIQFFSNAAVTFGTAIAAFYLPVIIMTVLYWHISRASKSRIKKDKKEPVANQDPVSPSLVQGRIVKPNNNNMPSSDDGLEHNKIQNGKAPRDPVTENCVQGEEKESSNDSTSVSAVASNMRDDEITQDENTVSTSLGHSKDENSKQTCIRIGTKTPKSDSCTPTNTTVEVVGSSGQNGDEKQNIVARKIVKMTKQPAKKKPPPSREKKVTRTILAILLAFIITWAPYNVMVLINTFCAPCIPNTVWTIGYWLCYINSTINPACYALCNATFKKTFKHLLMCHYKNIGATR

M3 mAChR [2] = target: T2, M3 mAChR (Homo sapiens, UniProt P20309); experiment: whole-cell [3H]NMS radioligand competition binding, CHO FlpIn cells; conditions: first set of experiments, read-out: pKI (radioligand binding competition with [3H]NMS) (converted)
T2 construct: expressed in transfected cells; host or cells: CHO FlpIn

M1 mAChR = M1 mAChR (Homo sapiens, UniProt P11229); experiment: cell-based
M5 mAChR [3] = target: T3, M5 mAChR (Homo sapiens, UniProt P08912); experiment: whole-cell [3H]NMS radioligand competition binding, CHO FlpIn cells; conditions: first set of experiments, read-out: pKI (radioligand binding competition with [3H]NMS) (converted)
T3 construct: expressed in transfected cells; host or cells: CHO FlpIn
T3 sequence (P08912 1-532): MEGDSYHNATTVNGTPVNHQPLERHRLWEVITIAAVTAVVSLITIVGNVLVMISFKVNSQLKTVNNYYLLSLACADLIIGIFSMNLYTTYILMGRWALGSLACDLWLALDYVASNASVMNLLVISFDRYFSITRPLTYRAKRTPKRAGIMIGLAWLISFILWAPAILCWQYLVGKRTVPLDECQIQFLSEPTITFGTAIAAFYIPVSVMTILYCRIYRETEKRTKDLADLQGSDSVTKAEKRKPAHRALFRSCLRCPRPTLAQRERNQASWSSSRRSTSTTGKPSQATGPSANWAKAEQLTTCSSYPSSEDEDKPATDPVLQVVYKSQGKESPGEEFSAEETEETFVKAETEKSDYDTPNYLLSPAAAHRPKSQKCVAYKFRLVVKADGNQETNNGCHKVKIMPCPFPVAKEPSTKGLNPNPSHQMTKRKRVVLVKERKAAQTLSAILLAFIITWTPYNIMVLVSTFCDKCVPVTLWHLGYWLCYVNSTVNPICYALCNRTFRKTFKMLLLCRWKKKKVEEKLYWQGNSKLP

M4 mAChR [4] = target: T4, M4 mAChR (Homo sapiens, UniProt P08173); experiment: as above; conditions: M4; first set of experiments (top 5 rows); read-out: pKI (radioligand binding competition with [3H]NMS) (converted)
T4 construct: expressed in transfected cells; host or cells: CHO FlpIn
T4 sequence (P08173 1-479): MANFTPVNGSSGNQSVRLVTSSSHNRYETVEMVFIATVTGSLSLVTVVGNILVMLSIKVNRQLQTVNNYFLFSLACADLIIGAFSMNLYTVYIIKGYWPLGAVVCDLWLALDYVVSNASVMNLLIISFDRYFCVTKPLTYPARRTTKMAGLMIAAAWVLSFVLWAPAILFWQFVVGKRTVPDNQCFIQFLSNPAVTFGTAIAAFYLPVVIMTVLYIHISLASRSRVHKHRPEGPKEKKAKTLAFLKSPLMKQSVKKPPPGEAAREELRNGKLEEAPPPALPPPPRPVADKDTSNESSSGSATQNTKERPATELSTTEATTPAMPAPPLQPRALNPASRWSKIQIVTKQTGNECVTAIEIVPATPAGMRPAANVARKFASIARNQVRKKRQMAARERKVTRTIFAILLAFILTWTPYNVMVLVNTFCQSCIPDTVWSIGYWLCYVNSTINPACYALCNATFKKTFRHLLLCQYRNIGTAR

M5 mAChR [5] = target: T3, M5 mAChR; experiment: pERK1/pERK2 signaling assay (AlphaScreen SureFire), CHO FlpIn cells; format: cell-based; conditions: first set of experiments
M2 WT mAChR = target: T5, M2 WT mAChR (Homo sapiens, UniProt P08172); experiment: BRET TRUPATH GoA activation (G-protein dissociation) assay; format: cell-based; conditions: M2 wt, T=6min, individual experiments, listed as Ach
T5 construct: expressed in transfected cells; host or cells: CHO FlpIn
T5 sequence (P08172 1-466): T1 sequence (P08172 1-466)
Protocol: (§1) Cells were seeded at 20,000 cells per well into 96-well flat-bottom white culture plates and grown for 4 h. Plasmid DNA (20 ng per well of Gα, Gβ and Gγ at a 1:1:1 ratio) and linear polyethylenimine were added to the cells in a 1:6 ratio. To allow for protein expression, cells were then incubated (37 °C, 5% CO2) for 48 h before the measurement of agonist activity. […] The initial 4 min of measurement was considered baseline counts before ligand or vehicle addition, with BRET readings every 2 min for a further 8 min following drug or vehicle addition.
(§2) Concentration–response curves were fitted to a three-parameter logistic equation to derive ligand potency (pEC50) estimates.
(§3) Data was analyzed using the operational model of agonism to quantify the efficacy (Logτ) of each agonist in each cell line, and subsequently corrected for receptor expression level differences between cell lines (Logτc), using the M2 WT as reference. […] Source data

M4 L190F mAChR [6] = target: T6, M4 L190F mAChR (Homo sapiens, UniProt P08173, L190F); experiment: as above; format: cell-based; conditions: T=6min, listed as Ach
T6 construct: expressed in transfected cells; host or cells: CHO FlpIn
T6 sequence (P08173 1-479 L190F): T4 sequence (P08173 1-479) with L190F
Protocol: as §1, §2, §3

M4 WT mAChR = target: T7, M4 WT mAChR (Homo sapiens, UniProt P08173); experiment: as above; format: cell-based; conditions: T=6min, listed as Ach
T7 construct: expressed in transfected cells; host or cells: CHO FlpIn
T7 sequence (P08173 1-479): T4 sequence (P08173 1-479)
Protocol: as §1, §2, §3

M2 mAChR [7] = target: M2 mAChR (Homo sapiens, UniProt P08172)
M4 mAChR [8] = target: M4 mAChR (Homo sapiens, UniProt P08173); experiment: [3H]NMS competition binding, purified receptor in lipid nanodiscs with Gi1 heterotrimer
M4 L190F mAChR [9] = target: T6, M4 L190F mAChR; experiment: pERK1/pERK2 signaling assay (AlphaScreen SureFire), CHO FlpIn cells; format: cell-based
M3 mAChR [10] = target: T2, M3 mAChR; experiment: as above; format: cell-based; conditions: M3; first set of experiments
M4 mAChR [11] = target: T4, M4 mAChR; experiment: as above; format: cell-based; conditions: for Fit parameter: Figure 5c, by tail length, best fit value from nonlinear regression on grouped data
M2 mAChR [12] = target: T1, M2 mAChR; experiment: as above; format: cell-based; conditions: for Fit parameter: Figure 5c, by tail length, best fit value from nonlinear regression on grouped data
[13] = Log[Ligand] (M) -4, individual experiments
[14] = Log[Ligand] (M) -9, individual experiments
[15] = Log[Ligand] (M) -10, individual experiments
[16] = Log[Ligand] (M) -12, individual experiments
[17] = Receptor : G protein Molar Ratio 1:0
[18] = overnight treatment with 10 ng per well pertussis toxin

CCCOc1nsnc1C1=CCCN(C)C1 [3-carbon tail analog of xanomeline]
Ki (M2 mAChR [1]): 22.9 nM
Ki (M3 mAChR [2]): 34.7 nM
Ki (M1 mAChR): 27.5 nM
Ki (M5 mAChR [3]): 49 nM
Ki (M4 mAChR [4]): 37.2 nM

CC(=O)OCC[N+](C)(C)C [Acetylcholine, acetylcholine]
Emax pERK1/2 (M5 mAChR [5]): 90 ± 4 % FBS stimulation
GoA activation response (M2 WT mAChR; Log[Ligand] (M) -4): 103.24 % Emax ACh and 95.841 % Emax ACh and 98.7568 % Emax ACh and 99.8054 % Emax ACh and 99.3813 % Emax ACh
GoA activation response (M2 WT mAChR; Log[Ligand] (M) -8): 9.766 % Emax ACh
GoA activation response (M2 WT mAChR; Log[Ligand] (M) -9): 1.63 % Emax ACh and -3.189 % Emax ACh and -6.851 % Emax ACh and 0.4007 % Emax ACh and 0.416 % Emax ACh
GoA activation response (M2 WT mAChR; Log[Ligand] (M) -10): -3.058 % Emax ACh and 8.597 % Emax ACh and 0.3009 % Emax ACh and 1.683 % Emax ACh and 4.386 % Emax ACh
GoA activation response (M2 WT mAChR; Log[Ligand] (M) -12): 6.399 % Emax ACh and 0.8864 % Emax ACh and 8.076 % Emax ACh and 1.671 % Emax ACh and -0.9147 % Emax ACh
GoA activation response (M4 L190F mAChR [6]; [13]): 106.304 % Emax ACh and 103.075 % Emax ACh and 107.769 % Emax ACh and 104.574 % Emax ACh and 105.838 % Emax ACh
GoA activation response (M4 L190F mAChR [6]; Log[Ligand] (M) -5, individual experiments): 99.5547 % Emax ACh and 105.081 % Emax ACh and 94.0499 % Emax ACh and 100.086 % Emax ACh and 98.7018 % Emax ACh
GoA activation response (M4 L190F mAChR [6]; Log[Ligand] (M) -6, individual experiments): 84.6502 % Emax ACh and 86.1198 % Emax ACh and 94.9784 % Emax ACh and 91.5878 % Emax ACh and 95.0975 % Emax ACh
GoA activation response (M4 L190F mAChR [6]; Log[Ligand] (M) -7, individual experiments): 59.4174 % Emax ACh and 69.5753 % Emax ACh and 70.634 % Emax ACh and 76.3729 % Emax ACh and 78.8634 % Emax ACh
GoA activation response (M4 L190F mAChR [6]; Log[Ligand] (M) -8, individual experiments): 12.4418 % Emax ACh and 20.3625 % Emax ACh and 19.5412 % Emax ACh and 25.1119 % Emax ACh and 33.5842 % Emax ACh
GoA activation response (M4 L190F mAChR [6]; [14]): 1.269 % Emax ACh and 1.901 % Emax ACh and 28.8031 % Emax ACh and 3.9293 % Emax ACh and 7.995 % Emax ACh
GoA activation response (M4 L190F mAChR [6]; [15]): -3.41 % Emax ACh and 9.605 % Emax ACh and 0.2419 % Emax ACh and -0.9 % Emax ACh and 0.4231 % Emax ACh
GoA activation response (M4 L190F mAChR [6]; [16]): 2.811 % Emax ACh and -10.3446 % Emax ACh and -23.8686 % Emax ACh and 0.009116 % Emax ACh and -3.752 % Emax ACh
GoA activation response (M4 WT mAChR; [13]): 104.45 % Emax ACh and 102.662 % Emax ACh and 101.586 % Emax ACh and 101.003 % Emax ACh and 104.541 % Emax ACh
GoA activation response (M4 WT mAChR; [14]): 1.1727 % Emax ACh and 5.239 % Emax ACh and 5.623 % Emax ACh and -1.171 % Emax ACh and 2.894 % Emax ACh
GoA activation response (M4 WT mAChR; [15]): 3.695 % Emax ACh and 0.8905 % Emax ACh and -7.035 % Emax ACh and 0.4855 % Emax ACh and -3.187 % Emax ACh
GoA activation response (M4 WT mAChR; [16]): -21.8016 % Emax ACh and 1.058 % Emax ACh and -6.101 % Emax ACh and 1.717 % Emax ACh and -0.3266 % Emax ACh
Fraction of receptors in a G protein-dependent high-affinity state (M2 mAChR [7]; [17]): 0.13 ± 0.10
Fraction of receptors in a G protein-dependent high-affinity state (M2 mAChR [7]; Receptor : G protein Molar Ratio 1:50): 0.33 ± 0.10
Fraction of receptors in a G protein-dependent high-affinity state (M2 mAChR [7]; Receptor : G protein Molar Ratio 1:1000): 0.57 ± 0.11
Fraction of receptors in a G protein-dependent high-affinity state (M2 mAChR [7]; Receptor : G protein Molar Ratio 1:2000): 0.89 ± 0.12
Fraction of receptors in a G protein-dependent high-affinity state (M4 mAChR [8]; [17]): 0.00 ± 0.04
Fraction of receptors in a G protein-dependent high-affinity state (M4 mAChR [8]; Receptor : G protein Molar Ratio 1:125): 0.30 ± 0.04
Fraction of receptors in a G protein-dependent high-affinity state (M4 mAChR [8]; Receptor : G protein Molar Ratio 1:500): 0.71 ± 0.03
Emax pERK1/2 (M4 L190F mAChR [9]): 94 ± 8 % FBS stimulation
Emax pERK1/2 (M3 mAChR [10]): 98 ± 5 % FBS stimulation

CCCOc1nsnc1C1=CCCN(C)C1 [C3]
Fit parameter (M4 mAChR [11]): 0.346
Fit parameter (M2 mAChR [12]): 0.6149

CCCCOc1nsnc1C1=CCCN(C)C1 [C4]
Fit parameter (M4 mAChR [11]): 0.4707
Fit parameter (M2 mAChR [12]): 0.5922

CCCCCOc1nsnc1C1=CCCN(C)C1 [C5]
Fit parameter (M4 mAChR [11]): 0.4599
Fit parameter (M2 mAChR [12]): 0.2865

CCCCCCOc1nsnc1C1=CCCN(C)C1 [C6]
Fit parameter (M4 mAChR [11]): 0.5137
Fit parameter (M2 mAChR [12]): 0.08358

CCCCCCCOc1nsnc1C1=CCCN(C)C1 [C7]
Fit parameter (M4 mAChR [11]): 0.4743
Fit parameter (M2 mAChR [12]): 0.1544

CCCCCCCCOc1nsnc1C1=CCCN(C)C1 [C8]
Fit parameter (M4 mAChR [11]): 0.3749
Fit parameter (M2 mAChR [12]): 0.1239

pertussis toxin
acetylcholine-mediated pERK1/pERK2 response eliminated (M4 mAChR [11]; [18]): > 95%
acetylcholine-mediated pERK1/pERK2 response eliminated (M2 mAChR [12]; [18]): > 95%

— paper PMC10299909, “Structural basis of efficacy-driven ligand selectivity at GPCRs” (Nature Chemical Biology, 2023)
